Results: patent US8993574B2, “Pyrrole antifungal agents” (F2G Ltd, priority 2008, dated 2015)
In brackets after ≈: the same amount, converted by molar mass.

What was measured:
Format in all cases: cell-based
Aspergillus flavus [1] = assay: MIC, YAG medium; conditions: 24 h at 35° C, MIC banded into grades; for MIC: Aspergillus flavus, 24 h, read-out: MIC grade, A. flavus
In short: (§1)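 Endpoint is growth at OD 485 nm after 24 h at 35° C, with MIC defined as the lowest drug level giving >70% inhibition relative to untreated wells and recorded in mg/L. Tests ran in YAG broth with 1−2×10^4 cfu/mL spore inocula from Sabouraud-grown cultures. Drug ranges were 50-0.05 mg/L, repeated at 0.5-0.0005 mg/L when needed.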

[2] = tested on: Aspergillus fumigatus AF293; assay: MIC, YAG medium; conditions: 24 h at 35° C, MIC banded into grades; for MIC: Aspergillus fumigatus, read-out: MIC grade, A. fumigatus
In short: as §1

[3] = tested on: Aspergillus fumigatus AF210; assay: MIC, YAG medium; conditions: 24 h at 35° C, MIC banded into grades; for MIC: Aspergillus fumigatus, read-out: MIC grade, A. fumigatus 210
In short: as §1

Aspergillus terreus AT4 [4] = assay: MIC, YAG medium; conditions: 24 h at 35° C, MIC banded into grades; for MIC: Aspergillus terreus, read-out: MIC grade, A. terreus
In short: as §1

Aspergillus terreus AT49 [5] = assay: MIC, YAG medium; conditions: 24 h at 35° C, MIC banded into grades; for MIC: Aspergillus terreus, read-out: MIC grade, A. terreus 49
In short: as §1

Aspergillus niger [6] = assay: MIC, YAG medium; conditions: 24 h at 35° C, MIC banded into grades; for MIC: Aspergillus niger, read-out: MIC grade, A. niger
In short: as §1

Aspergillus flavus [7] = assay: MIC, RPMI medium; conditions: MIC banded into grades; for MIC: Aspergillus flavus, read-out: MIC grade, A. flavus
In short: (§2)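 MIC taken as lowest drug level inhibiting growth by >80% relative to drug-free wells, read as OD at 485 nm after 24-48 h at 35° C. Organisms at 1−2×10^4 cfu/mL in RPMI (2% glucose, 0.135 M MOPS, pH 7.0) exposed to doubling dilutions spanning 50-0.05 mg/L.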

[8] = tested on: Aspergillus fumigatus AF293; assay: MIC, RPMI medium; conditions: for MIC: Aspergillus fumigatus, AF293, MIC banded into grades, read-out: MIC grade, A. fumigatus; for MIC grade, A. fumigatus: MIC banded into grades
In short: as §2

[9] = tested on: Aspergillus fumigatus AF210; assay: MIC, RPMI medium; conditions: for MIC: Aspergillus fumigatus, AF210, MIC banded into grades, read-out: MIC grade, A. fumigatus 210; for MIC grade, A. fumigatus 210: MIC banded into grades
In short: as §2

Aspergillus terreus AT4 [10] = assay: MIC, RPMI medium; conditions: for MIC: Aspergillus terreus, AT4, MIC banded into grades, read-out: MIC grade, A. terreus; for MIC grade, A. terreus: MIC banded into grades
In short: as §2

Aspergillus terreus AT49 [11] = assay: MIC, RPMI medium; conditions: for MIC: Aspergillus terreus, AT49, MIC banded into grades, read-out: MIC grade, A. terreus 49; for MIC grade, A. terreus 49: MIC banded into grades
In short: as §2

Aspergillus niger [12] = assay: MIC, RPMI medium; conditions: MIC banded into grades; for MIC: Aspergillus niger, read-out: MIC grade, A. niger
In short: as §2

| SMILES | MIC (Aspergillus flavus [1]) | MIC [2] | MIC [3] | MIC (Aspergillus terreus AT4 [4]) | MIC (Aspergillus terreus AT49 [5]) | MIC (Aspergillus niger [6]) | MIC (Aspergillus flavus [7]) | MIC [8] | MIC [9] | MIC (Aspergillus terreus AT4 [10]) | MIC (Aspergillus terreus AT49 [11]) | MIC (Aspergillus niger [12]) | further results |
| --- | --- | --- | --- | --- | --- | --- | --- | --- | --- | --- | --- | --- | --- |
| CC(=O)NCCn1c(C)cc(-c2ccccc2)c1C(=O)C(=O)Nc1ccc(N2CCN(c3cc(C)cc(C)n3)CC2)cc1 [Example 65, 2-[1-(2-Acetylamino-ethyl)-5-methyl-3-phenyl-1H-pyrrol-2-yl]-N-{4-[4-(4,6-dimethyl-pyridin-2-yl)-piperazin-1-yl]-phenyl}-2-oxo-acetamide] | > 10 µg/mL | > 10 µg/mL | > 10 µg/mL | > 10 µg/mL | > 10 µg/mL | > 10 µg/mL | > 10 µg/mL | > 10 µg/mL | > 10 µg/mL | > 10 µg/mL | > 10 µg/mL | > 10 µg/mL |  |
| Cc1cc(C)nc(N2CCN(c3ccc(NC(=O)C(=O)c4c(-c5ccccc5)ccn4CCO)cc3)CC2)c1 [Example 66, N-{4-[4-(4,6-Dimethyl-pyridin-2-yl)-piperazin-1-yl]-phenyl}-2-[1-(2-hydroxy-ethyl)-3-phenyl-1H-pyrrol-2-yl]-2-oxo-acetamide] | 1 to 10 µg/mL (≈ 1.91 to 19.1 µM) | < 1 µg/mL | 1 to 10 µg/mL (≈ 1.91 to 19.1 µM) | 1 to 10 µg/mL (≈ 1.91 to 19.1 µM) | < 1 µg/mL | > 10 µg/mL | > 10 µg/mL | 1 to 10 µg/mL (≈ 1.91 to 19.1 µM) | 1 to 10 µg/mL (≈ 1.91 to 19.1 µM) | 1 to 10 µg/mL (≈ 1.91 to 19.1 µM) | 1 to 10 µg/mL (≈ 1.91 to 19.1 µM) | > 10 µg/mL |  |
| COCCn1ccc(-c2cccs2)c1C(=O)C(=O)Nc1ccc(N2CCN(c3cc(C)cc(C)n3)CC2)cc1 [Example 67, N-{4-[4-(4,6-Dimethyl-pyridin-2-yl)-piperazin-1-yl]-phenyl}-2-[1-(2-methoxy-ethyl)-3-thiophen-2-yl-1H-pyrrol-2-yl]-2-oxo-acetamide] | < 1 µg/mL | < 1 µg/mL | < 1 µg/mL | < 1 µg/mL | < 1 µg/mL | 1 to 10 µg/mL (≈ 1.84 to 18.4 µM) | 1 to 10 µg/mL (≈ 1.84 to 18.4 µM) | 1 to 10 µg/mL (≈ 1.84 to 18.4 µM) | 1 to 10 µg/mL (≈ 1.84 to 18.4 µM) | < 1 µg/mL | < 1 µg/mL | > 10 µg/mL |  |
| COCCn1cc(-c2cccc(Cl)c2)cc1C(=O)C(=O)Nc1ccc(N2CCN(c3cc(C)cc(C)n3)CC2)cc1 [Example 71, 2-[4-(3-Chloro-phenyl)-1-(2-methoxy-ethyl)-1H-pyrrol-2-yl]-N-{4-[4-(4,6-dimethyl-pyridin-2-yl)-piperazin-1-yl]-phenyl}-2-oxo-acetamide] | > 10 µg/mL | > 10 µg/mL | > 10 µg/mL | > 10 µg/mL | 1 to 10 µg/mL (≈ 1.75 to 17.5 µM) | > 10 µg/mL | > 10 µg/mL | > 10 µg/mL | > 10 µg/mL | > 10 µg/mL | > 10 µg/mL | > 10 µg/mL |  |
| Cc1cc(C)nc(N2CCN(c3ccc(NC(=O)C(=O)c4c(-c5ccccc5)ccn4CC(N)=O)cc3)CC2)c1 [Example 75, 2-(1-Carbamoylmethyl-3-phenyl-1H-pyrrol-2-yl)-N-{4-[4-(4,6-dimethyl-pyridin-2-yl)-piperazin-1-yl]-phenyl}-2-oxo-acetamide] | > 10 µg/mL | > 10 µg/mL | > 10 µg/mL | > 10 µg/mL | > 10 µg/mL | > 10 µg/mL | > 10 µg/mL | > 10 µg/mL | > 10 µg/mL | > 10 µg/mL | > 10 µg/mL | > 10 µg/mL |  |
| Cc1cc(C)nc(N2CCN(c3ccc(NC(=O)C(=O)c4c(-c5ccccc5)cc(C)n4CC(=O)OC(C)C)cc3)CC2)c1 [Example 77, (2-{4-[4-(4,6-Dimethyl-pyridin-2-yl)-piperazin-1-yl]-phenylaminooxalyl}-5-methyl-3-phenyl-pyrrol-1-yl)-acetic acid isopropyl ester] |  |  |  |  |  |  |  |  |  |  |  |  | MIC grade, A. flavus (Aspergillus flavus [1]): 1 (a grade of 1 represents an MIC of greater than 10 mg/L); MIC grade, A. fumigatus [2]: 3 (A grade of 3 represents an MIC of less than 1 mg/L); MIC grade, A. fumigatus 210 [3]: 3 (A grade of 3 represents an MIC of less than 1 mg/L); MIC grade, A. terreus (Aspergillus terreus AT4 [4]): 2 (A grade of 2 represents an MIC of from 1 to 10 mg/L); MIC grade, A. terreus 49 (Aspergillus terreus AT49 [5]): 2 (A grade of 2 represents an MIC of from 1 to 10 mg/L); MIC grade, A. niger (Aspergillus niger [6]): 2 (A grade of 2 represents an MIC of from 1 to 10 mg/L); MIC grade, A. flavus (Aspergillus flavus [7]): 1 (a grade of 1 represents an MIC of greater than 10 mg/L); MIC grade, A. fumigatus [8]: 2 (A grade of 2 represents an MIC of from 1 to 10 mg/L); MIC grade, A. fumigatus 210 [9]: 2 (A grade of 2 represents an MIC of from 1 to 10 mg/L); MIC grade, A. terreus (Aspergillus terreus AT4 [10]): 1 (a grade of 1 represents an MIC of greater than 10 mg/L); MIC grade, A. terreus 49 (Aspergillus terreus AT49 [11]): 1 (a grade of 1 represents an MIC of greater than 10 mg/L); MIC grade, A. niger (Aspergillus niger [12]): 1 (a grade of 1 represents an MIC of greater than 10 mg/L) |
| COCCn1c(C(C)C)cc(-c2ccccc2)c1C(=O)C(=O)Nc1ccc(N2CCN(c3cc(C)cc(C)n3)CC2)cc1 [Example 78, N-{4-[4-(4,6-Dimethyl-pyridin-2-yl)-piperizin-1-yl]-phenyl}-2-[5-isopropyl-1-(2-methoxy-ethyl)-3-phenyl-1H-pyrrol-2-yl]-2-oxo-acetamide] |  |  |  |  |  |  |  |  |  |  |  |  | MIC grade, A. flavus (Aspergillus flavus [1]): 1 (a grade of 1 represents an MIC of greater than 10 mg/L); MIC grade, A. fumigatus [2]: 1 (a grade of 1 represents an MIC of greater than 10 mg/L); MIC grade, A. fumigatus 210 [3]: 1 (a grade of 1 represents an MIC of greater than 10 mg/L); MIC grade, A. terreus (Aspergillus terreus AT4 [4]): 1 (a grade of 1 represents an MIC of greater than 10 mg/L); MIC grade, A. terreus 49 (Aspergillus terreus AT49 [5]): 2 (A grade of 2 represents an MIC of from 1 to 10 mg/L); MIC grade, A. niger (Aspergillus niger [6]): 1 (a grade of 1 represents an MIC of greater than 10 mg/L); MIC grade, A. flavus (Aspergillus flavus [7]): 1 (a grade of 1 represents an MIC of greater than 10 mg/L); MIC grade, A. fumigatus [8]: 1 (a grade of 1 represents an MIC of greater than 10 mg/L); MIC grade, A. fumigatus 210 [9]: 1 (a grade of 1 represents an MIC of greater than 10 mg/L); MIC grade, A. terreus (Aspergillus terreus AT4 [10]): 1 (a grade of 1 represents an MIC of greater than 10 mg/L); MIC grade, A. terreus 49 (Aspergillus terreus AT49 [11]): 1 (a grade of 1 represents an MIC of greater than 10 mg/L); MIC grade, A. niger (Aspergillus niger [12]): 1 (a grade of 1 represents an MIC of greater than 10 mg/L) |
| COCCc1cc(C)n(-c2ccccc2)c1C(=O)C(=O)Nc1ccc(N2CCN(c3cc(C)cc(C)n3)CC2)cc1 [Example 80, N-{4-[4-(4,6-Dimethyl-pyridin-2-yl)-piperazin-1-yl]-phenyl}-2-[3-(2-methoxy-ethyl)-5-methyl-1-phenyl-1H-pyrrol-2-yl]-2-oxo-acetamide] | > 10 µg/mL | > 10 µg/mL | > 10 µg/mL | > 10 µg/mL | > 10 µg/mL | > 10 µg/mL | > 10 µg/mL | > 10 µg/mL | > 10 µg/mL | > 10 µg/mL | > 10 µg/mL | > 10 µg/mL |  |
| CCCNC(=O)C(=O)c1c(-c2ccccc2)ccn1CCOC [Example 82, 2-[1-(2-Methoxy-ethyl)-3-phenyl-1H-pyrrol-2-yl]-2-oxo-N-propyl-acetamide] | > 10 µg/mL | 1 to 10 µg/mL (≈ 3.18 to 31.8 µM) | 1 to 10 µg/mL (≈ 3.18 to 31.8 µM) | 1 to 10 µg/mL (≈ 3.18 to 31.8 µM) | 1 to 10 µg/mL (≈ 3.18 to 31.8 µM) | > 10 µg/mL | > 10 µg/mL | > 10 µg/mL | > 10 µg/mL | > 10 µg/mL | > 10 µg/mL | > 10 µg/mL |  |
| COCCn1ccc(C(C)C)c1C(=O)C(=O)Nc1ccc(N2CCN(c3cc(C)cc(C)n3)CC2)cc1 [Example 83, N-{4-[4-(4,6-Dimethyl-pyridin-2-yl)-piperazin-1-yl]-phenyl}-2-[3-isopropyl-1-(2-methoxy-ethyl)-1H-pyrrol-2-yl]-2-oxo-acetamide] | > 10 µg/mL | 1 to 10 µg/mL (≈ 1.99 to 19.9 µM) | 1 to 10 µg/mL (≈ 1.99 to 19.9 µM) | 1 to 10 µg/mL (≈ 1.99 to 19.9 µM) | 1 to 10 µg/mL (≈ 1.99 to 19.9 µM) | > 10 µg/mL | > 10 µg/mL | > 10 µg/mL | > 10 µg/mL | > 10 µg/mL | > 10 µg/mL | > 10 µg/mL |  |
